These results are taken from patent US4544629A, “Receptor-based histamine assay” (Minnesota Mining and Manufacturing Company, priority 1982, dated 1985).

SMILES strings stand for the structures. Counter-ions that a name gives are not always drawn. Like-named read-outs stand apart in the source and are kept apart here.

The subject of assay [1] is cell surface histamine receptors. As to conditions: phosphate-buffered saline. The procedure: (§1) In order to free the histamine receptors from the cell wall, the cells were washed three times in phosphate buffered saline, resuspended at a concentration of 1×10^7 cells per ml in phosphate-buffered saline and either stored at 4° C. for three days or incubated at 46° C. for 90 minutes. The cells were then centrifuged at 1000 X G for ten minutes. The supernatant liquid containing the shed histamine receptors was removed by aspiration and the cell pellet discarded.
(§2) Samples of 200 microliters of heat-inactivated fetal calf sera were added to each well of a polystyrene microtiter plate as a protein pretreatment and the seracontaining plates were incubated at 25° C. for 15 minutes. Each well was then washed twice with phosphate-buffered saline. To each well was added 200 microliters of 1 millimolar trinitrobenzene sulfonate in phosphate-buffered saline, and the plate was incubated at 37° C. for thirty minutes. Each well was then washed three times with phosphate-buffered saline. To each well was then added 200 microliters of histamine receptor in phosphate buffered saline prepared according to the procedure of EXAMPLE 1. The plate was then incubated at 25° C. for thirty minutes. After the incubation, each well was washed three times with phosphate-buffered saline and the plates were allowed to air dry at 25° C. for about 16 hours, then stored at 4° C.
(§3) Cell surface histamine receptors prepared as described in EXAMPLE 1 were affixed to microtiter plate wells by protein pretreatment (see EXAMPLE 2) of the plate followed by surface activation with 1 millimolar trinitrobenzene sulfonate as described in EXAMPLE 2.
(§4) The various quantities of histamine in phosphate-buffered saline were incubated in several replications with the receptor. […] After washing out the unbound indicator, para-nitrophenyl phosphate was added and incubated for 1 hour at 37° C. The enzymatic reaction was stopped with 1N aqueous sodium hydroxide and the absorbance at A410 read from a Beckman spectrophotometer.

In assay [2] the test system is histamine receptor. As to conditions: read at 510 nm, blank .400, background .095. The procedure:
as §1, §2

The subject of assay [3] is histamine receptors attached to a solid phase. As to conditions: anticoagulated human whole blood. The procedure:
(§5) To determine the sensitivity of the histamine assay, an inhibition assay was performed using whole cells with histamine in 0.01M phosphate-bufferedsaline as the inhibitor. The histamine was incubated with 1×10^6cells for 30 minutes. The unbound inhibitor was washed out and the histamine-enzyme added and incubated 30 minutes. After washing out the unbound indicator, the enzyme substrate, p-nitrophenyl phosphate was added and incubated for 1 hour at 37° C. The enzymatic reaction was stopped with 1N aqueous sodium hydroxide and the absorbance at A410 read from a Beckman spectrophotometer. The amount of product formed was inversely proportional to the amount of free histamine bound to the cells.
as §3, §4
Using the method described in EXAMPLES 6 and 7, the sensitivity of the assay to histamine dissolved in anticoagulated human whole blood was measured.

The test system of assay [4] is histamine receptor on whole cells. The procedure: The reaction was stopped with 1N aqueous sodium hydroxide and the product formed was quantified spectrophotometrically. The total enzyme activity was determined by incubating 10 microliters of the dilutions of histamine-enzyme with the enzyme substrate for 60 minutes, stopping the reaction with lN aqueous sodium hydroxide and quantifying the product formed.

The test system is the same in assay [5]. As to conditions: 1×10^6 cells. The procedure:
as §5

Assay [6] relates to histamine receptor. The procedure: as §2

`NCCc1c[nH]cn1` [Histamine, histamine]: the “Percent inhibition of enzyme activity” value in assay [1] (0.05 ng histamine added) came to 30%; in assay [1] (0.1 ng histamine added) it was 40%; in assay [1] (0.25 ng histamine added), 46%; in assay [1] (0.5 ng histamine added), 52%; in assay [1] (1 ng histamine added), 60%; in assay [1] (5 ng histamine added) it was 65%. For the same compound, the “Percent inhibition of enzyme activity” value is on record as 72% in assay [1] (10 ng histamine added); 79% in assay [1] (25 ng histamine added); 49% in assay [3] (1 ng histamine added); 70% in assay [3] (5 ng histamine added); 79% in assay [3] (10 ng histamine added); 91% in assay [3] (25 ng histamine added). Moreover, the “Percent inhibition of enzyme activity” value came to 7% in assay [5] (histamine added 500 pg); 14% in assay [5] (histamine added 5 ng); 24% in assay [5] (histamine added 50 ng); 32% in assay [5] (histamine added 500 ng); 45% in assay [5] (histamine added 5 g (so in the source)); 69% in assay [5] (histamine added 50 g (so in the source)). Moreover, the Absorbance entry is recorded as “.310” in the assay on histamine receptor [2] (25 micrograms histamine per well), “.285” with histamine receptor [2] (50 micrograms histamine per well), “.205” with histamine receptor [2] (75 micrograms histamine per well) and “.125” with histamine receptor [2] (100 micrograms histamine per well). Besides, in assay [4], the “Inhibition of receptor-bound histamine-enzyme stimulation” value was “inhibitable”. Also, the “Effect of added histamine on the enhanced enzyme activity” value in assay [4] (histamine added before incubation with histamine-alkaline phosphatase) is given as “inhibited”.
Regarding `[3H]c1nc(CCN)c([3H])[nH]1` [3H-labeled histamine, 2,5-^3 H-histamine hydrochloride], the “Average 3H Counts per minute” value in the assay with histamine receptor [6] (control wells (nonspecific binding)) stood at 1172 Counts per minute; in the assay on histamine receptor [6] (receptor wells), 7968 Counts per minute.
